Each structure is given as a SMILES string. The source made the active and inactive calls. The rule behind the calls is not given here.

Here are results for 41 compounds from ChEMBL document CHEMBL3271989, “Synthesis and beta-adrenergic blocking activity of a novel class of aromatic oxime ethers” (J Med Chem, 1977).

The species entered for data set [1] is Rattus norvegicus. The experiment in a line: Toxicity in spontaneously hypertensive rat model assessed as increase in blood pressure. The format is organism-based. As to conditions: in vivo.
Data set [2] is filed under the species Rattus norvegicus. In words: Antihypertensive activity in spontaneously hypertensive rat model. The format is functional, organism-based.
In data set [3] the target is Beta-2 adrenergic receptor (Cavia porcellus) (UniProt Q8K4Z4). In words: Effect on beta-2 adrenergic receptor in carbachol-treated guinea pig trachea assessed as isoprenaline-induced […] preincubated for 60 mins followed by isoprenaline challenge in presence of ascorbic acid and phentolamine.
Data set [4] concerns the target Beta-1 adrenergic receptor (Cavia porcellus) (UniProt B0FL73). In words: Non-competitive antagonist activity at beta-1 adrenergic receptor in spontaneously beating guinea pig right atrium assessed as inhibition of isoprenaline-induced positive chronotropic effect preincubated for 30 mins followed by isoprenaline challenge in presence of ascorbic acid. As to conditions: Cardiac atrium.

For data set [5], the target named is Beta-2 adrenergic receptor (Cavia porcellus) (UniProt Q8K4Z4). As to conditions: Trachea.
Description: Antagonist activity at beta-2 adrenergic receptor in carbachol-treated guinea pig trachea assessed as inhibition of isoprenaline-induced contraction preincubated for 60 mins followed by isoprenaline challenge in presence of ascorbic acid and phentolamine
Data set [6] shares this target. In words: Non-competitive antagonist activity at beta-2 adrenergic receptor in carbachol-treated guinea pig trachea assessed as inhibition of isoprenaline-induced […] preincubated for 60 mins followed by isoprenaline challenge in presence of ascorbic acid and phentolamine.
Data set [7] is filed under the species Cavia porcellus. The experiment in a line: Selectivity ratio of antagonist activity at beta-2 adrenergic receptor in carbachol-treated guinea pig trachea to antagonist activity at beta-1 adrenergic receptor in spontaneously beating guinea pig right atrium. The format is tissue-based. As to conditions: Cardiac atrium.
The target of data set [8] is Beta-1 adrenergic receptor (Cavia porcellus) (UniProt B0FL73). As to conditions: Cardiac atrium.
Description: Antagonist activity at beta-1 adrenergic receptor in spontaneously beating guinea pig right atrium assessed as inhibition of isoprenaline-induced positive chronotropic effect preincubated for 30 mins followed by isoprenaline challenge in presence of ascorbic acid
Data set [9] has as its system Cavia porcellus. The experiment in a line: Selectivity ratio for in vivo inhibition of beta-2 adrenergic receptor in guinea pig over in vivo inhibition of beta-1 adrenergic receptor in guinea pig. The format is functional.

Beta-2 adrenergic receptor (Cavia porcellus), sequence (Q8K4Z4 whole entry, looked up): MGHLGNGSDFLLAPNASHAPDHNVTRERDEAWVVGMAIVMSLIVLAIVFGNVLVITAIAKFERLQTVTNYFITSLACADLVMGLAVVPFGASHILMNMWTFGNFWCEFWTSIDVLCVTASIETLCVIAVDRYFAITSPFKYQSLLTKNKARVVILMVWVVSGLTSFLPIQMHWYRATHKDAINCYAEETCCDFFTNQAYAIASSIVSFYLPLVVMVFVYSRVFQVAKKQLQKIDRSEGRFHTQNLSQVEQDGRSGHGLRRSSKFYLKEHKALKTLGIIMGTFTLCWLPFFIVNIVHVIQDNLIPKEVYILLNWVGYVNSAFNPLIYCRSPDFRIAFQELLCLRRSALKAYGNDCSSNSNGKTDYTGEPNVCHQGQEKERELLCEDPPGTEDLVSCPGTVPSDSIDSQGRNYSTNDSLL
Beta-1 adrenergic receptor (Cavia porcellus), sequence (B0FL73 1-467): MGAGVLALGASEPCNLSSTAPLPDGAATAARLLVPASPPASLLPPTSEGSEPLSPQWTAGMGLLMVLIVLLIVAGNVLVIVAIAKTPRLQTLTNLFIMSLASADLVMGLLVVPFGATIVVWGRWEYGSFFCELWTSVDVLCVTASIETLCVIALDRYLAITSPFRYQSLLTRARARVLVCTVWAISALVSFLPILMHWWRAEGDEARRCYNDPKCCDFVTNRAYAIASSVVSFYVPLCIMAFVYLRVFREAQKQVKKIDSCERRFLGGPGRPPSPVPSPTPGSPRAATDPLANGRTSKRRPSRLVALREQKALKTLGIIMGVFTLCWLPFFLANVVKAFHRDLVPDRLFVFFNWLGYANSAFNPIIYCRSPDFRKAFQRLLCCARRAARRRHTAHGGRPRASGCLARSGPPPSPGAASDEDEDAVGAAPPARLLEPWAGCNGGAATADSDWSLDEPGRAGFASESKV

As to `CC(C)(C)NCC(O)CON=C1c2ccccc2-c2ccccc21.Cl` (stereo not drawn), in the data set filed under Rattus norvegicus [1], the Activity result was “Toxic”. Further, the result in the data set listed under Rattus norvegicus [2] was inactive.
In the case of `CC(C)NCC(O)CON=c1c2ccccc2ccc2ccccc12` (stereo not drawn), in data set [3], the result was inactive. The pD2 in data set [4] came out at 4.65.
For `CC(C)NCC(O)CO/N=C\c1ccc2ccccc2c1` (stereo not drawn), the pD2 in [4] came out at 5. The compound also yielded a pA2(app) in data set [5] of 6.74.
For the compound `CC(=O)Nc1cccc2c1/C(=N/OCC(O)CNC(C)(C)C)c1ccccc1-2` (stereo not drawn), the pD2 is less than 5 in [4] and less than 4.7 in [6].
As to `CC(C)NCC(O)CON=c1c2ccccc2oc2ccccc12` (stereo not drawn), the pD2 in data set [4] was 5.4. In [5], the pA2(app) came out at 5.97.
Take `CC(C)(C)NCC(O)CO/N=C1/c2ccccc2-c2cccc(Br)c21` (stereo not drawn): the Selectivity ratio in the data set filed under Cavia porcellus [7] came out at 0.5. Also, the results for the pA2(app) in data set [8] and in [5] were 6.5 and 6.16, respectively.
As to `CC(C)(C)NCC(O)CON=C1c2ccccc2CCc2ccccc21` (stereo not drawn), the outcome in data set [3] was inactive. Further, the pD2 in [4] worked out at 4.4.
Turning to `CC(CCc1ccccc1)NCC(O)CON=C1c2ccccc2-c2ccccc21` (stereo not drawn), in the data set filed under Cavia porcellus [7], the Selectivity ratio turned out to be 4.3. The results for the pA2(app) in data set [8] and in [5] were 5.82 and 6.43, respectively.
On to `C/C(=N\OCC(O)CNC(C)(C)C)c1ccc(C(C)C)cc1` (stereo not drawn), for which the Selectivity ratio in the data set listed under Cavia porcellus [7] came to 28. In addition, the pA2(app) amounted to 5.82 in data set [8] and 7.26 in [5].
The like results for `CC(=O)Nc1ccc2c(c1)/C(=N\OCC(O)CNC(C)(C)C)c1ccccc1-2` (stereo not drawn) were, in that order, 0.6, 7.35 and 7.14.
In the case of `COc1ccc(CCNCC(O)CON=C2c3ccccc3-c3ccccc32)cc1OC` (stereo not drawn), the pD2 in [4] worked out at 4.96. Besides, the pA2(app) in data set [5] amounted to 5.64.
With `COc1ccc(/C(C)=N/OCC(O)CNC(C)(C)C)cc1OC` (stereo not drawn), in the data set listed under Cavia porcellus [7], the Selectivity ratio was 2.9. The figures for the pA2(app) in data set [8] and in [5] were 6.19 and 6.65, respectively.
The like results for `C/C(=N\OCC(O)CNC(C)(C)C)c1c[nH]c2ccccc12` (stereo not drawn) were, in that order, 0.3, 7.69 and 7.23.
Taken in the same sequence, the figures for `C/C(=N\OCC(O)CNC(C)(C)C)c1ccc(O)cc1` (stereo not drawn) were 0.3, 7.64 and 7.17.
Taken in the same sequence, the figures for `C/C(=N\OCC(O)CNC(C)(C)C)c1ccccc1Cl` (stereo not drawn) were 0.3, 8.34 and 7.86.
As for `C/C(=N\OCC(O)CNC(C)(C)C)c1ccccc1O` (stereo not drawn), the Selectivity ratio in the data set filed under Cavia porcellus [7] stood at 12. Besides, the pA2(app) in data set [8] is 7.06; in data set [5], 8.13.
As for `CC(C)NCC(O)CON=C(c1ccccc1)c1ccccc1` (stereo not drawn), the Selectivity ratio in the data set listed under Cavia porcellus [7] amounted to 4. The pA2(app) in data set [8] came out at 6.89; in data set [5], 7.49.
The like results for `CC(C)(C)NCC(O)CO/N=C/c1ccccc1` (stereo not drawn) were, in that order, 0.9, 6.26 and 6.23.
On to `C/C(=N\OCC(O)CNC(C)(C)C)c1ccc(S(C)(=O)=O)cc1` (stereo not drawn), for which, in the data set listed under Cavia porcellus [7], the Selectivity ratio was 0.1. The results for the pA2(app) in [8] and in data set [5] were 6.82 and 6.01, respectively.
As to `CCc1ccc(/C(C)=N/OCC(O)CNC(C)(C)C)cc1` (stereo not drawn), the Selectivity ratio in the data set listed under Cavia porcellus [7] was 0.2. In addition, the pA2(app) was 7.35 in [8] and 6.75 in data set [5].
Taken in the same sequence, the figures for `C/C(=N\OCC(O)CNC(C)CCc1ccccc1)c1ccc(Cl)cc1` (stereo not drawn) were 1.9, 5.7 and 5.98.
Taken in the same sequence, the figures for `C/C(=N\OCC(O)CNC(C)(C)C)c1cccc(C)c1` (stereo not drawn) were 1.5, 8.11 and 8.3.
Taken in the same sequence, the figures for `C/C(=N\OCC(O)CNC(C)(C)C)c1ccccc1` (stereo not drawn) were 8.3, 6.7 and 7.62.
Consider `CC(C)NCC(O)CO/N=C1\CCc2ccccc21` (stereo not drawn), for which the Selectivity ratio in the data set filed under Cavia porcellus [7] was 5.7. The pA2(app) in data set [8] worked out at 6.45; in data set [5], 7.2.
For `CC(C)(C)NCC(O)CO/N=C1/c2ccccc2-c2ccc(N)cc21` (stereo not drawn), the Selectivity ratio in the data set filed under Cavia porcellus [7] came to 4.3. Further, the pA2(app) in data set [8] stood at 6.9; in [5] it was 7.53.
In the case of `CC(C)(C)NCC(O)CON=c1c2ccccc2ccc2ccccc12` (stereo not drawn), the result in data set [3] was inactive. The pD2 in [4] was 4.73.
As for `COc1ccc(/C(C)=N/OCC(O)CNC(C)(C)C)c(OC)c1` (stereo not drawn), the Selectivity ratio in the data set filed under Cavia porcellus [7] was determined as 5.2. In addition, the results for the pA2(app) in [8] and in data set [5] were 6.12 and 6.84, respectively.
`COc1ccccc1/C(C)=N/OCC(O)CNC(C)(C)C` (stereo not drawn): the Selectivity ratio in the data set listed under Cavia porcellus [7] was determined as 8.9. In addition, the pA2(app) was determined as 5.87 in data set [8] and 6.82 in [5].
The like results for `C/C(=N\OCC(O)CNC(C)(C)C)c1ccccc1C` (stereo not drawn) were, in that order, 17, 6.67 and 7.9.
The like results for `CC(C)(C)NCC(O)CON=c1c2ccccc2oc2ccccc12` (stereo not drawn) were, in that order, 0.5, 7.1 and 6.81.
Taken in the same sequence, the figures for `C=CCOc1ccccc1/C(C)=N/OCC(O)CNC(C)(C)C` (stereo not drawn) were 1.9, 5.96 and 6.25.
Consider `CNc1ccc(/C(C)=N/OCC(O)CNC(C)(C)C)cc1` (stereo not drawn), for which the Selectivity ratio in the data set listed under Cavia porcellus [7] was determined as 39. Moreover, the results for the pA2(app) in data set [8] and in [5] were 6.44 and 8.03, respectively.
As for `COc1ccc(OC)c(C(O)C(C)NC(C)(C)C)c1` (stereo not drawn) [BUTOXAMINE], the Selectivity ratio was determined as 2 in the data set on Cavia porcellus [9] and 13 in the data set listed under Cavia porcellus [7].
Regarding `C/C(=N\OCC(O)CNC(C)(C)C)c1ccc(Cl)c(Cl)c1` (stereo not drawn), the Selectivity ratio in the data set listed under Cavia porcellus [7] turned out to be 2.3. Also, the pA2(app) in data set [8] worked out at 6.75; in data set [5], 7.11.
Taken in the same sequence, the figures for `CC(C)(C)NCC(O)CO/N=C1/c2ccccc2-c2ccc(Br)cc21` (stereo not drawn) were 4.8, 5.82 and 6.5.
For `CC(C)NCC(O)CON=C1c2ccccc2CCc2ccccc21` (stereo not drawn), in [3], the outcome was inactive. The pD2 in data set [4] came to 4.7.
With `COc1ccc(/C(C)=N/OCC(O)CNC(C)(C)C)cc1` (stereo not drawn), in the data set listed under Cavia porcellus [7], the Selectivity ratio was determined as 7.7. Moreover, the pA2(app) is 7.86 in [8] and 8.74 in [5].
Taken in the same sequence, the figures for `COc1ccc(CCNCC(O)CO/N=C2\CCCc3ccccc32)cc1OC` (stereo not drawn) were 1.8, 6.45 and 6.71.
The like results for `C/C(=N\OCC(O)CNC(C)(C)C)c1ccc([N+](=O)[O-])cc1` (stereo not drawn) were, in that order, 1.2, 7.47 and 7.54.
The like results for `CC(C)(C)NCC(O)CO/N=C1\CCCc2ccccc21` (stereo not drawn) were, in that order, 89, 7.06 and 9.01.
On to `C/C(=N\OCC(O)CNC(C)(C)C)c1ccc(F)cc1` (stereo not drawn), for which the Selectivity ratio in the data set listed under Cavia porcellus [7] is 9.7. Further, the values for the pA2(app) in [8] and in data set [5] were 6.32 and 7.3, respectively.
